One may read the IC50 as the concentration at which inhibition is half-maximal.

T1 sequence (P13569 whole entry): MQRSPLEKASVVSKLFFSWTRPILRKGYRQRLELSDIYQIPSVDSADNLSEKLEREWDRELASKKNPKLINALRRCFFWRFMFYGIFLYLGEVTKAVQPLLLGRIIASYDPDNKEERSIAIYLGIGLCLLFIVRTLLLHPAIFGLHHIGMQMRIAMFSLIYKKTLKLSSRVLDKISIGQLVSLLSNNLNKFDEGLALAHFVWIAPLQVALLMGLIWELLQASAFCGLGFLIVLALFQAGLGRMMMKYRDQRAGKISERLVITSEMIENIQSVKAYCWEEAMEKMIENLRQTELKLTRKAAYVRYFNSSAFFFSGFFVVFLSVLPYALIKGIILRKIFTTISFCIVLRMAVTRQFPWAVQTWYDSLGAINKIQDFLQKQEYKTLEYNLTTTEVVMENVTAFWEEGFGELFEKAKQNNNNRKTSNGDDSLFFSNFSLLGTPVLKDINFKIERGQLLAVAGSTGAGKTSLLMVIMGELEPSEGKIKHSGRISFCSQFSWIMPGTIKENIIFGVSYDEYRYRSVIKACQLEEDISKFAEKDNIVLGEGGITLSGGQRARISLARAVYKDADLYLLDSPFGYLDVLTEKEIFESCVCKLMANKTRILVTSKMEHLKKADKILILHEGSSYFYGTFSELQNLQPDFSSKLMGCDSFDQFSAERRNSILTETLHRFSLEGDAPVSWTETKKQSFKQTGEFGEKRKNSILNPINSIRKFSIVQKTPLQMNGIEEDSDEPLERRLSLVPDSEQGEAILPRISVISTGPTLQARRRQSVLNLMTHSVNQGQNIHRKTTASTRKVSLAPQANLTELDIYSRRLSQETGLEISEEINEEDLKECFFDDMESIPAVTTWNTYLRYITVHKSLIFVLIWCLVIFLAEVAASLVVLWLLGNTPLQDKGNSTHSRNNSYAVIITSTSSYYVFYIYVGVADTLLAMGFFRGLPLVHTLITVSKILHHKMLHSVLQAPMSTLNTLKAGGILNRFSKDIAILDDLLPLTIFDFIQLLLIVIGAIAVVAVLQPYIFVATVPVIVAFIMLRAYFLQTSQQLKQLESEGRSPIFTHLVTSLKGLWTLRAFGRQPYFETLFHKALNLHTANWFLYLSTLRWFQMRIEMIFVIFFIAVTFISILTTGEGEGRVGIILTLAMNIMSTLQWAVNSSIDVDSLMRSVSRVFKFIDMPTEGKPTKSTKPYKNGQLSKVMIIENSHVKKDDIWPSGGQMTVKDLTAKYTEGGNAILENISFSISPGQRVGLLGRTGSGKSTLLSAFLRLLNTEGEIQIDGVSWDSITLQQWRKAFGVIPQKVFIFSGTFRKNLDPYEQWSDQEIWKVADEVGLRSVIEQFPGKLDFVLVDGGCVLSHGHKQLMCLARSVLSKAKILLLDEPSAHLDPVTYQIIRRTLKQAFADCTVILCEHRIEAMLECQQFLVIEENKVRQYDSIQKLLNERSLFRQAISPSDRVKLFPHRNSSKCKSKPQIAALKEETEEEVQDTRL

In the first assay the test system is cholera toxin (CTX) induced net fluid secretion in small intestine loops.
Assay: not given
More on the design: species or system mice (CD1 strain). As to conditions: mouse, in vivo.
`O=S(=O)(Nc1cccc(-c2ccc(OCCc3ccc(Cl)cc3)nn2)c1)C(F)(F)F` [Compound 2, N-(3-(6-(4-chlorophenethoxy)pyridazin-3-yl)phenyl)-1,1,1-trifluoromethanesulfonamide]: the “closed loop % inhibition” value amounted to 98.2%.

The next assay addresses T1, CFTR (Homo sapiens, UniProt P13569).
T1 construct: host or cells: T84 human colonic cells
Description: T84 assay (FLIPR membrane potential dye, forskolin/IBMX-stimulated CFTR channel activity). It counts as cell-based. As to conditions: average of at least 2 runs unless annotated n = 1. On the procedure: Human colonic T84 cells are acquired from the European Collection of Cell Cultures (ECACC) and are grown in standard culture conditions as described by the supplier. On the day before assay 25,000 T84 cells per well are plated into standard black walled, clear bottom 384-well assay plates in standard growth medium consisting of DMEM:F12 with 10% FBS and incubated overnight. On the day of the assay the plates are washed using a standard assay buffer (HBSS with 10 mM Hepes) and incubated for 15 minutes in serum free cell culture medium before the addition of a commercially available membrane potential sensitive fluorescent dye (FLIPR Red membrane potential dye, Molecular Devices Corporation). T84 cells are incubated with the FLIPR Red membrane potential dye for 45 minutes in the presence and absence of test compound before being transferred to a commercially available fluorescence imaging plate reader (FLIPR384, Molecular Devices Corporation). Fluorescence levels are monitored continuously every second for 150 seconds; after an initial 10 second baseline, CFTR channel activity is stimulated through the addition of 10 μM forskolin in the presence of 100 μM of the phosphodiesterase inhibitor iso-butyl-methylxanthine (IBMX). Addition of the forskolin leads to the activation of intracellular adenylyl cylase 1, elevating cAMP levels and results in the phosphorylation and opening of CFTR anion channels. CFTR channel opening causes chloride ion efflux and subsequent depolarization of the cells, which is measured by an increase in fluorescence. CFTR inhibitor compounds prevent cell depolarization and the associated increase in fluorescence.
Unless otherwise indicated, the IC50 values are reported as an average of at least 2 runs. Where only 1 run is used, it is indicated by the annotation “n=1.”
The molecule `CC(C)(C)c1ccc(S(=O)(=O)NC(=O)c2cccc(-c3ccc(OCCc4ccc(Cl)cc4)nn3)c2)cc1` [Compound 14, N-(4-tert-butylphenylsulfonyl)-3-(6-(4-chlorophenethoxy)pyridazin-3-yl)benzamide] registered a concentration for half-maximal inhibition (IC50) of 20.1 µM.
For `O=S(=O)(Nc1ccc(-c2ccc(OCCc3ccc(Cl)cc3)nn2)cc1)C(F)(F)F` [Compound 22, N-(4-(6-(4-chlorophenethoxy)pyridazin-3-yl)phenyl)-1,1,1-trifluoromethanesulfonamide], inhibition was half-maximal at 2.84 µM (IC50).
Same read-out and setting: the value for `O=S(=O)(Nc1cccc(-c2ccc(OCCc3ccc(Cl)cc3)nn2)c1)C(F)(F)F` [Compound 2, N-(3-(6-(4-chlorophenethoxy)pyridazin-3-yl)phenyl)-1,1,1-trifluoromethanesulfonamide] was 5.79 µM.
Still for that read-out and setting: the same measure for `CCN(Cc1ccccc1)c1ccc(-c2cccc(NS(=O)(=O)c3cccc(Br)c3)c2)nn1` [Compound 9, N-(3-(6-(benzyl(ethyl)amino)pyridazin-3-yl)phenyl)-3-bromobenzenesulfonamide]: 0.05 µM; for `O=C(NS(=O)(=O)c1ccc(F)cc1F)c1cccc(-c2ccc(OCCc3ccc(Cl)cc3)nn2)c1` [Compound 21, 3-(6-(4-chlorophenethoxy)pyridazin-3-yl)-N-(2,4-difluorophenylsulfonyl)benzamide]: 18.7 µM.
Still for that read-out and setting: the value for `O=C(NS(=O)(=O)c1ccc(F)c(F)c1)c1cccc(-c2ccc(OCCc3ccc(Cl)cc3)nn2)c1` [Compound 19, 3-(6-(4-chlorophenethoxy)pyridazin-3-yl)-N-(3,4-difluorophenylsulfonyl)benzamide] was 13.9 µM; that for `CCN(Cc1ccccc1)c1ccc(-c2cccc(NS(C)(=O)=O)c2)nn1` [Compound 7, N-(3-(6-(benzyl(ethyl)amino)pyridazin-3-yl)phenyl)methanesulfonamide] was 2.23 µM; that for `O=C(NS(=O)(=O)Cc1ccccc1)c1cccc(-c2ccc(OCCc3ccc(Cl)cc3)nn2)c1` [Compound 17, N-(benzylsulfonyl)-3-(6-(4-chlorophenethoxy)pyridazin-3-yl)benzamide] was 6.05 µM.
On to `O=C(NS(=O)(=O)c1ccc(F)c(F)c1)c1cccc(-c2ccc(OCCc3ccc(Cl)cc3)nn2)c1` [Compound 15, 3-(6-(4-chlorophenethoxy)pyridazin-3-yl)-N-(3,4-difluorophenylsulfonyl)benzamide], for which the IC50 was 27.7 µM.
Still for that read-out and setting: the same measure for `CC(C)CS(=O)(=O)Nc1ccc(-c2ccc(OCCc3ccc(Cl)cc3)nn2)cc1` [Compound 24, N-(4-(6-(4-chlorophenethoxy)pyridazin-3-yl)phenyl)-2-methylpropane-1-sulfonamide]: 15.4 µM; for `O=S(=O)(CC(F)(F)F)Nc1cccc(-c2ccc(OCCc3ccc(Cl)cc3)nn2)c1` [Compound 20, N-(3-(6-(4-chlorophenethoxy)pyridazin-3-yl)phenyl)-2,2,2-trifluoroethanesulfonamide]: 14.8 µM.
On the same count and under the same terms, the value for `Cc1ccc(S(=O)(=O)Nc2cccc(-c3ccc(NCc4ccccc4)nn3)c2)cc1` [Compound 16, N-(3-(6-(benzylamino)pyridazin-3-yl)phenyl)-4-methylbenzenesulfonamide] was 2.24 µM; that for `CCN(Cc1ccccc1)c1ccc(-c2cccc(NS(=O)(=O)N(C)C)c2)nn1` [Compound 6, N-(3-(6-(benzyl(ethyl)amino)pyridazin-3-yl)phenyl)dimethylaminosulfonamide] was 1.4 µM; that for `CCN(Cc1ccccc1)c1ccc(-c2cccc(NS(=O)(=O)c3ccc(C)cc3)c2)nn1` [Compound 8, N-(3-(6-(benzyl(ethyl)amino)pyridazin-3-yl)phenyl)-4-methylbenzenesulfonamide] was 0.05 µM.
The same measure, in the same setting: the value for `CCN(Cc1ccccc1)c1ccc(-c2cccc(N3CCCS3(=O)=O)c2)nn1` [Compound 26, Benzyl-{6-[3-(1,1-dioxo-isothiazolidin-2-yl)-phenyl]-pyridazin-3-yl}-ethylamine] was 3.77 µM; that for `COc1ccc(S(=O)(=O)NC(=O)c2cccc(-c3ccc(OCCc4ccc(Cl)cc4)nn3)c2)cc1` [Compound 11, 3-(6-(4-chlorophenethoxy)pyridazin-3-yl)-N-(4-methoxyphenylsulfonyl)benzamide] was 11.4 µM; that for `CCN(Cc1ccccc1)c1ccc(-c2cccc(NS(=O)(=O)C(F)(F)F)c2)nn1` [Compound 10, N-(3-(6-(benzyl(ethyl)amino)pyridazin-3-yl)phenyl)-1,1,1-trifluoromethanesulfonamide] was 7.92 µM.
Molecule `N#Cc1ccc(S(=O)(=O)Nc2cccc(-c3ccc(OCCc4ccc(Cl)cc4)nn3)c2)cc1` [Compound 3, N-(3-(6-(4-chlorophenethoxy)pyridazin-3-yl)phenyl)-4-cyanobenzenesulfonamide] gave a concentration for half-maximal inhibition (IC50) of 17.2 µM.
On the same count and under the same terms, the value for `CCS(=O)(=O)NC(=O)c1cccc(-c2ccc(OCCc3ccc(Cl)cc3)nn2)c1` [Compound 13, 3-(6-(4-chlorophenethoxy)pyridazin-3-yl)-N-(ethylsulfonyl)benzamide] was 18.7 µM; that for `CC(C)(C)c1ccc(S(=O)(=O)Nc2cccc(-c3ccc(OCCc4ccc(Cl)cc4)nn3)c2)cc1` [Compound 18, 4-tert-butyl-N-(3-(6-(4-chlorophenethoxy)pyridazin-3-yl)phenyl)benzenesulfonamide] was 8.09 µM; that for `CC(=O)Nc1ccc(S(=O)(=O)Nc2cccc(-c3ccc(OCCc4ccc(Cl)cc4)nn3)c2)cc1` [Compound 5, N-(4-(N-(3-(6-(4-chlorophenethoxy)pyridazin-3-yl)phenyl)sulfamoyl)phenyl)acetamide] was 27.7 µM.
With `O=C(NS(=O)(=O)c1ccc(F)cc1)c1cccc(-c2ccc(OCCc3ccc(Cl)cc3)nn2)c1` [Compound 12, 3-(6-(4-chlorophenethoxy)pyridazin-3-yl)-N-(4-fluorophenylsulfonyl)benzamide], the IC50 was found to be 11.7 µM. This IC50 is about 2.4-fold lower than that of the molecule before.
Same read-out and setting: the same measure for `Cc1ccc(S(=O)(=O)NC(=O)c2ccc(-c3ccc(OCCc4ccc(Cl)cc4)nn3)cc2)cc1` [Compound 23, 4-(6-(4-chlorophenethoxy)pyridazin-3-yl)-N-tosylbenzamide]: 3.03 µM.
As to `CS(=O)(=O)Nc1cccc(-c2ccc(OCCc3ccc(Cl)cc3)nn2)c1` [Compound 1, N-(3-(6-(4-chlorophenethoxy)pyridazin-3-yl)phenyl)methanesulfonamide], 9.79 µM corresponded to half-maximal inhibition (IC50).
Take `O=S(=O)(Nc1cccc(-c2ccc(OCCc3ccc(Cl)cc3)nn2)c1)c1ccc(N2CCOCC2)nc1` [Compound 4, N-(3-(6-(4-chlorophenethoxy)pyridazin-3-yl)phenyl)-6-morpholinopyridine-3-sulfonamide]: it took 5.55 µM to reach half-maximal inhibition (IC50).

For the origin of these results see patent publication US20120129858A1, “COMPOUNDS, COMPOSITIONS AND METHODS COMPRISING PYRIDAZINE SULFONAMIDE DERIVATIVES” (INSTITUTE FOR ONEWORLD HEALTH, priority 2009, published 2012).
